Structures can show the parent of a compound that is named as a salt.
biological target: T1, Human complement C1s enzyme (Homo sapiens, UniProt P09871); assay: Human C1s Enzyme Assay; type: biochemical; details: human C1s 1.16 nM, 5 min preincubation, substrate Z-L-Lys-SBzl 100 μM, A405; read-out: C1s Protease Activity
T1 construct: purified from human serum, Complement Technology, Inc; purchased Complement Technology, Inc; host or cells: human serum
T1 sequence (P09871 438-688 limits assumed): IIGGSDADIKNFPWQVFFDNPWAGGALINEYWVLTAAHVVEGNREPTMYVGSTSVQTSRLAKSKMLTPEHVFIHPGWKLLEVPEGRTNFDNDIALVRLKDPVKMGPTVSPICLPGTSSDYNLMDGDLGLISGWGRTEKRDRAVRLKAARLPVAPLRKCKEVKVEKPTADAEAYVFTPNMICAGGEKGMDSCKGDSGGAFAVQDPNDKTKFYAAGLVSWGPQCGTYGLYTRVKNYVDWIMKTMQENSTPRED
T1 sequence (P09871 16-437 partner limits assumed): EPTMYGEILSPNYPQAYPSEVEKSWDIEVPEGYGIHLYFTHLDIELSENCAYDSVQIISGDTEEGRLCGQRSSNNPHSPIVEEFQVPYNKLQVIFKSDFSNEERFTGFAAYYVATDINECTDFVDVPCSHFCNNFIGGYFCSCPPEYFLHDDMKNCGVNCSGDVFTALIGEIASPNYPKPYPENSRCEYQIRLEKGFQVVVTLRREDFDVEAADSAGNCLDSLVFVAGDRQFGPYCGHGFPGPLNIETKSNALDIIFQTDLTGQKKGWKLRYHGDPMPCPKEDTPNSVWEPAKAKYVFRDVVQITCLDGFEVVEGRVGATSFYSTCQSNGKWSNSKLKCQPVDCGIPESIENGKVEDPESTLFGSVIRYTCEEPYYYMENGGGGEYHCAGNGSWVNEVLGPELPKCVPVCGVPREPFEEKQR
Summary of the method: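 IC50 values were fitted by nonlinear regression to rates measured as A405 every 30 s for 30 min. The thioester substrate Z-L-Lys-SBzl and Ellman's reagent were each at 100 μM. Serum-derived C1s at 1.16 nM final had 5 min of room-temperature preincubation with compound (pH 7.5 Tris buffer, 1 M NaCl).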

Structure (SMILES) | IC50 [nM]
N=C(N)c1csc(CNC(=O)[C@@H]2C[C@@H](C(F)(F)F)CN2C(=O)CNC(=O)CCCOc2ccccc2)c1 [Compound 60, (2S,4R)-N-((4-carbamimidoylthiophen-2-yl)methyl)-1-((4-phenoxybutanoyl)glycyl)-4-(trifluoromethyl)pyrrolidine-2-carboxamide] | < 100
C[C@@]12C[C@@H]1N(C(=O)CNC(=O)c1ccc(Oc3ccccc3)cc1)[C@H](C(=O)NC1(c3cc(C(=N)N)cs3)CC1)C2 [Compound 41, (1S,3S,5S)-N-(1-(4-carbamimidoylthiophen-2-yl)cyclopropyl)-5-methyl-2-((4-phenoxybenzoyl)glycyl)-2-azabicyclo[3.1.0]hexane-3-carboxamide] | < 100
N=C(N)c1csc(CNC(=O)[C@@H]2C[C@H](c3ccccc3)CN2C(=O)CNC(=O)CCCOc2ccccc2)c1 [Compound 157, (2S,4R)-N-((4-carbamimidoylthiophen-2-yl)methyl)-1-((4-phenoxybutanoyl)glycyl)-4-phenylpyrrolidine-2-carboxamide] | < 100
C[C@@]12C[C@@H]1N(C(=O)CNC(=O)c1ccc(Oc3ccccc3)cc1)[C@H](C(=O)NCc1cc(S(C)(=N)=O)cs1)C2 (stereo partly drawn) [Compound 23, (1S,3S,5S)-5-methyl-N-((4-(S-methylsulfonimidoyl)thiophen-2-yl)methyl)-2-((4-phenoxybenzoyl)glycyl)-2-azabicyclo[3.1.0]hexane-3-carboxamide] | > 1000
N=C(N)c1csc(CNC(=O)[C@@H]2CC[C@@H]3CC[C@H](NC(=O)c4ccc(Oc5ccccc5)cc4)C(=O)N32)c1 [Compound 211, (3S,6S,8aS)-N-((4-carbamimidoylthiophen-2-yl)methyl)-5-oxo-6-(4-phenoxybenzamido)octahydroindolizine-3-carboxamide] | 100 to 1000
C[C@H](O)[C@H](O)[C@@H](O)[C@@H](O)CNCC(=O)N1[C@H]2C[C@@]2(C)C[C@H]1C(=O)NCc1cc(C(=N)N)cs1 [Compound 24, (1S,3S,5S)-N-((4-carbamimidoylthiophen-2-yl)methyl)-5-methyl-2-(((2S,3S,4S,5S)-2,3,4,5-tetrahydroxyhexyl)glycyl)-2-azabicyclo[3.1.0]hexane-3-carboxamide hydrochloride] | > 1000
C[C@@]12C[C@@H]1N(C(=O)CNC(=O)COCCOCCNC(=O)COCCOCCNC(=O)CC[C@H](NC(=O)CCCCCCCCCCCCCCCCC(=O)O)C(=O)O)[C@H](C(=O)NCc1cc(C(=N)N)cs1)C2 [Compound 100, 17-{[(1S)-3-{[2-(2-{[(2-{2-[({2-[(1S,3S,5S)-3-{[(4-carbamimidoylthiophen-2-yl)methyl]-carbamoyl}-5-methyl-2-azabicyclo[3.1.0]hexan-2-yl]-2-oxoethyl}carbamoyl)methoxy]ethoxy}ethyl)-carbamoyl]methoxy}ethoxy)ethyl]carbamoyl}-1-carboxypropyl]-carbamoyl}heptadecanoic acid] | > 1000
N=C(N)c1csc(CNC(=O)CNC(=O)CNC(=O)c2ccc(Oc3ccccc3)cc2)c1 [Compound 77, N-(2-((2-(((4-carbamimidoylthiophen-2-yl)methyl)amino)-2-oxoethyl)amino)-2-oxoethyl)-4-phenoxybenzamide] | 100 to 1000
CC(C)O[C@@H]1C[C@@H](C(=O)NCc2cc(C(=N)N)cs2)N(C(=O)CNC(=O)c2ccc(Oc3ccccc3)cc2)C1 [Compound 138, (2S,4R)-N-((4-carbamimidoylthiophen-2-yl)methyl)-4-isopropoxy-1-((4-phenoxybenzoyl)glycyl)pyrrolidine-2-carboxamide] | < 100
Cc1cccc([C@@H]2C[C@@H](C(=O)NCc3cc(C(=N)N)cs3)N(C(=O)CNC(=O)CCCOc3ccccc3)C2)c1 [Compound 171, (2S,4S)-N-((4-carbamimidoylthiophen-2-yl)methyl)-1-((4-phenoxybutanoyl)glycyl)-4-(m-tolyl)pyrrolidine-2-carboxamide] | < 100
C[C@@]12C[C@@H]1N(C(=O)CNC(=O)CCCOC1CCCCC1)[C@H](C(=O)NCc1cc(C(=N)N)cs1)C2 [Compound 117] | < 100

Continued, values first:

IC50 [nM] | Structure (SMILES)
< 100 | C[C@@H](NC(=O)[C@@H]1C[C@]2(COCCCCCC(=O)O)C[C@@H]2N1C(=O)CNC(=O)CCCOc1ccccc1)c1cc(C(=N)N)cs1 [Compound 169, 6-(((1S,3S,5R)-3-(((R)-1-(4-carbamimidoylthiophen-2-yl)ethyl)carbamoyl)-2-((4-phenoxybutanoyl)glycyl)-2-azabicyclo[3.1.0]hexan-5-yl)methoxy)hexanoic acid]
< 100 | C[C@@H](NC(=O)[C@@H]1CC2(CN1C(=O)CNC(=O)CCCOc1ccc(F)cc1)OCCO2)c1cc(C(=N)N)cs1 [Compound 104, (S)-N-((R)-1-(4-carbamimidoylthiophen-2-yl)ethyl)-7-((4-(4-fluorophenoxy)butanoyl)-glycyl)-1,4-dioxa-7-azaspiro[4.4]nonane-8-carboxamide]
100 to 1000 | C[C@@H](NC(=O)[C@@H]1C[C@]2(C)C[C@@H]2N1C(=O)CNC(=O)CCCOc1ccc(F)cc1)c1cc(C(=N)N)cs1 [Compound 121, (1S,3S,5S)-N-((R)-1-(4-carbamimidoylthiophen-2-yl)ethyl)-2-((4-(4-fluorophenoxy)butanoyl)glycyl)-5-methyl-2-azabicyclo[3.1.0]hexane-3-carboxamide]
100 to 1000 | N=C(N)c1csc(CNC(=O)[C@@H]2C[C@]3(CO)C[C@@H]3N2C(=O)CNC(=O)CCCOc2ccccc2)c1 [Compound 84, (1S,3S,5R)-N-((4-carbamimidoylthiophen-2-yl)methyl)-5-(hydroxymethyl)-2-((4-phenoxybutanoyl)glycyl)-2-azabicyclo[3.1.0]hexane-3-carboxamide]
< 100 | [N-]=[N+]=NC[C@@]1(F)C[C@@H](C(=O)NCc2cc(C(=N)N)cs2)N(C(=O)CNC(=O)CCCOc2ccccc2)C1 [Compound 85, (2S,4R)-4-(azidomethyl)-N-((4-carbamimidoylthiophen-2-yl)methyl)-4-fluoro-1-((4-phenoxybutanoyl)glycyl)pyrrolidine-2-carboxamide]
< 100 | C[C@@H](NC(=O)[C@@H]1C[C@@H](Oc2ccc(F)cc2)CN1C(=O)CNC(=O)CCCOc1ccccc1)c1cc(C(=N)N)cs1 [Compound 119, (2S,4R)-N-((R)-1-(4-carbamimidoylthiophen-2-yl)ethyl)-4-(4-fluorophenoxy)-1-((4-phenoxybutanoyl)glycyl)pyrrolidine-2-carboxamide]
< 100 | CS(=O)(=O)[C@@H]1C[C@@H](C(=O)NCc2cc(C(=N)N)cs2)N(C(=O)CNC(=O)CCCOc2ccccc2)C1 [Compound 98, (2S,4R)-N-((4-carbamimidoylthiophen-2-yl)methyl)-4-(methylsulfonyl)-1-((4-phenoxybutanoyl)glycyl)pyrrolidine-2-carboxamide]
< 100 | C[C@@H](NC(=O)[C@@H]1C[C@]2(COCCNC(=O)COCCOCCNC(=O)COCCOCCNC(=O)CC[C@H](NC(=O)CCCCCCCCCCCCCCCCC(=O)O)C(=O)O)C[C@@H]2N1C(=O)CNC(=O)CCCOc1ccccc1)c1cc(C(=N)N)cs1 [Compound 152, (S)-1-((1S,3S,5R)-3-(((R)-1-(4-carbamimidoylthiophen-2-yl)ethyl)carbamoyl)-2-((4-phenoxybutanoyl)glycyl)-2-azabicyclo[3.1.0]hexan-5-yl)-27-carboxy-6,15,24,29-tetraoxo-2,8,11,17,20-pentaoxa-5,14,23,28-tetraazahexatetracontan-46-oic acid]

From patent publication US20250171423A1, “PHARMACEUTICAL COMPOUNDS FOR THE TREATMENT OF COMPLEMENT MEDIATED DISORDERS” (Achillion Pharmaceuticals, Inc., priority 2020, published 2025)
